Reference: patent publication US11802120B2, “Fused cyclic urea derivatives as CRHR2 antagonist” (RaQualia Pharma Inc., priority 2018, dated 2023)

Target: T1, human CRHR2-alpha (Homo sapiens, UniProt Q13324)
T1 sequence (Q13324 1-411): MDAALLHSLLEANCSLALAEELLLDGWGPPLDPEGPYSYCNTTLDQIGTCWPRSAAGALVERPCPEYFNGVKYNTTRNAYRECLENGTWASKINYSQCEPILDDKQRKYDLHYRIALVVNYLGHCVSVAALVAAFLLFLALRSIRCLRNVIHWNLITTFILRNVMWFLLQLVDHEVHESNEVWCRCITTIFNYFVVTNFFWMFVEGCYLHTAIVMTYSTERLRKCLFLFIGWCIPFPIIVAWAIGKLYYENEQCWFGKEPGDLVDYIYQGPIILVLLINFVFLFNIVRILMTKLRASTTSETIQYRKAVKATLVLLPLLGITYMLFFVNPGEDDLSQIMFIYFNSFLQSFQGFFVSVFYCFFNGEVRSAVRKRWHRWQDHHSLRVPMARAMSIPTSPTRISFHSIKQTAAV
Assay: cAMP functional assay for human CRHR2 (LANCE Ultra cAMP, TR-FRET)
Assay type: cell-based
Conditions: CHO-K1 cells expressing human CRHR2-alpha, agonist human urocortin2 at EC80, cAMP; read-out: IC50 against CRHR2
Method in brief: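 Inhibition of agonist-driven cAMP was assessed in recombinant CHO-K1 cells at 25° C, using 30 min compound pretreatment and 30 min stimulation with EC80 human urocortin2 (CRHR2) or CRF (CRHR1). IC50 came from dose-response fitting.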

| IC50 | SMILES |
| --- | --- |
| < 300 nM | CCn1nc2ccccc2c1C(=O)N[C@H]1CC[C@H](Cn2c(=O)n(-c3ccc(OC)nc3)c3ccccc32)CC1 [Example 39, 2-ethyl-N-((1r,4r)-4-((3-(6-methoxypyridin-3-yl)-2-oxo-2,3-dihydro-1H-benzo[d]imidazol-1-yl)methyl)cyclohexyl)-2H-indazole-3-carboxamide] |
| < 300 nM | Cc1ncc(Cl)cc1C(=O)N[C@H]1CC[C@H](Cn2c(=O)n(-c3ccc(-c4ccccc4)nc3)c3ccccc32)CC1 [Example 89, 5-chloro-2-methyl-N-((1r,4r)-4-((2-oxo-3-(6-phenylpyridin-3-yl)-2,3-dihydro-1H-benzo[d]imidazol-1-yl)methyl)cyclohexyl)nicotinamide] |
| < 300 nM | CNC(=O)c1cc(C)c(-n2c(=O)n(C[C@H]3CC[C@H](NC(=O)c4cc(Cl)cnc4C)CC3)c3ccccc32)cn1 [Example 199, 5-(3-(((1r,4r)-4-(5-chloro-2-methylnicotinamido)cyclo-hexyl)methyl)-2-oxo-2,3-dihydro-1H-benzo[d]imidazol-1-yl)-N,4-dimethylpicolinamide] |
| < 300 nM | Cc1c[nH]c2ncc(-n3c(=O)n(C[C@H]4CC[C@H](NC(=O)c5cc(Cl)cnc5C(F)F)CC4)c4ncccc43)cc12 [Example 578, 5-chloro-2-(difluoromethyl)-N-((1r,4r)-4-((1-(3-methyl-1H-pyrrolo[2,3-b]pyridin-5-yl)-2-oxo-1H-imidazo[4,5-b]pyridin-3(2H)-yl)methyl)cyclohexyl)nicotinamide] |
| < 300 nM | COc1ccc(-n2c(=O)n(C[C@H]3CC[C@H](NC(=O)c4cc(Cl)cnc4C)CC3)c3ccccc32)c(C)n1 [Example 149, 5-chloro-N-((1r,4r)-4-((3-(6-methoxy-2-methylpyridin-3-yl)-2-oxo-2,3-dihydro-1H-benzo[d]imidazol-1-yl)methyl)cyclohexyl)-2-methylnicotinamide] |
| < 300 nM | Cc1ncc(Cl)cc1C(=O)N[C@H]1CC[C@H](Cn2c(=O)n(-c3ccc(-c4c[nH]nn4)cc3)c3ccccc32)CC1 [Example 633, N-((1r,4r)-4-((3-(4-(1H-1,2,3-triazol-4-yl)phenyl)-2-oxo-2,3-dihydro-1H-benzo[d]imidazol-1-yl)methyl)cyclohexyl)-5-chloro-2-methylnicotinamide] |
| < 300 nM | COc1ccc(-n2c(=O)n(C[C@H]3CC[C@H](NC(=O)c4cc(Cl)cnc4Cl)CC3)c3ccccc32)cn1 [Example 237, 2,5-dichloro-N-((1r,4r)-4-((3-(6-methoxypyridin-3-yl)-2-oxo-2,3-dihydro-1H-benzo[d]imidazol-1-yl)methyl)cyclo-hexyl)nicotinamide] |
| < 300 nM | Cc1ncc(Cl)cc1C(=O)N[C@H]1CC[C@H](Cn2c(=O)n(-c3ccc(-c4cnco4)cc3)c3ccccc32)CC1 [Example 450, 5-chloro-2-methyl-N-((1r,4r)-4-((3-(4-(oxazol-5-yl)phenyl)-2-oxo-2,3-dihydro-1H-benzo [d]imidazol-1-yl)methyl)cyclo-hexyl)nicotinamide] |
| < 300 nM | Cc1ncc(Cl)cc1C(=O)N[C@H]1CC[C@H](Cn2c(=O)n(-c3ccc(NC[C@@H]4CCCO4)nc3)c3ccccc32)CC1 [Example 109, 5-chloro-2-methyl-N-((1S,4r)-4-((2-oxo-3-(6-((((S)-tetrahydro-furan-2-yl)methyl)amino)pyridin-3-yl)-2,3-dihydro-1H-benzo[d]imidazol-1-yl)methyl)cyclohexyl)nicotinamide] |
| < 300 nM | Cc1ncc(Cl)cc1C(=O)N[C@H]1CC[C@H](Cn2c(=O)n(-c3ccnc(C)c3C)c3ccccc32)CC1 [Example 331, 5-chloro-N-((1r,4r)-4-((3-(2,3-dimethylpyridin-4-yl)-2-oxo-2,3-dihydro-1H-benzo [d]imidazol-1-yl)methyl)cyclohexyl)-2-methylnico-tinamide] |
| < 300 nM | Cc1ccc(-n2c(=O)n(C[C@H]3CC[C@H](NC(=O)c4cc(Cl)cnc4C)CC3)c3ccccc32)cc1CO [Example 127, 5-chloro-N-((1r,4r)-4-((3-(3-(hydroxymethyl)-4-methylphenyl)-2-oxo-2,3-dihydro-1H-benzo[d]imidazol-1-yl)methyl)cyclo-hexyl)-2-methylnicotinamide] |
| < 300 nM | Cc1ncc(Cl)cc1C(=O)N[C@H]1CC[C@H](Cn2c(=O)n(-c3ccc(-n4nccn4)nc3)c3ccccc32)CC1 [Example 512, N-((1r,4r)-4-((3-(6-(2H-1,2,3-triazol-2-yl)pyridin-3-yl)-2-oxo-2,3-dihydro-1H-benzo[d]imidazol-1-yl)methyl)cyclohexyl)-5-chloro-2-methylnicotinamide] |
| < 300 nM | Cc1cc2cc(-n3c(=O)n(C[C@H]4CC[C@H](NC(=O)c5cc(Cl)cnc5C(F)F)CC4)c4ccccc43)cnc2n1C [Example 674, 5-chloro-2-(difluoromethyl)-N-((1r,4r)-4-((3-(1,2-dimethyl-1H-pyrrolo[2,3-b]pyridin-5-yl)-2-oxo-2,3-dihydro-1H-benzo[d]imidazol-1-yl)methyl)cyclohexyl)nicotinamide] |
| < 300 nM | CNc1ncc(-n2c(=O)n(C[C@H]3CC[C@H](NC(=O)c4cc(Cl)cnc4C(F)(F)F)CC3)c3ccccc32)cc1C [Example 544, 5-chloro-N-((1r,4r)-4-((3-(5-methyl-6-(methylamino)pyridin-3-yl)-2-oxo-2,3-dihydro-1H-benzo[d]imidazol-1-yl)methyl)cyclo-hexyl)-2-(trifluoromethyl) nicotinamide] |

The remaining lines, values behind:

| SMILES | IC50 |
| --- | --- |
| CCn1nc2ccccc2c1C(=O)N[C@H]1CC[C@H](Cn2c(=O)n(-c3ccc(C(C)=O)cc3)c3ccccc32)CC1 [Example 41, N-((1r,4r)-4-((3-(4-acetylphenyl)-2-oxo-2,3-dihydro-1H-benzo[d]imidazol-1-yl)methyl)cyclohexyl)-2-ethyl-2H-indazole-3-carboxamide] | < 300 nM |
| Cc1ncc(Cl)cc1C(=O)N[C@H]1CC[C@H](Cn2c(=O)n(-c3ccccc3Cl)c3ncccc32)CC1 [Example 234, 5-chloro-N-((1r,4r)-4-((3-(2-chlorophenyl)-2-oxo-2,3-dihydro-1H-imidazo[4,5-b]pyridin-1-yl)methyl)cyclo-hexyl)-2-methylnicotinamide] | < 300 nM |
| CNc1cccc(-n2c(=O)n(C[C@H]3CC[C@H](NC(=O)c4cc(Cl)cnc4C(F)F)CC3)c3ccccc32)n1 [Example 662, 5-chloro-2-(difluoromethyl)-N-((1r,4r)-4-((3-(6-(methylamino)pyridin-2-yl)-2-oxo-2,3-dihydro-1H-benzo[d]imidazol-1-yl)methyl)cyclohexyl)nicotinamide] | < 300 nM |
| O=C(N[C@H]1CC[C@H](Cn2c(=O)n(-c3ccc(NC(=O)C4CC4)nc3)c3ccccc32)CC1)c1cc(Cl)cnc1C(F)F [Example 502, 5-chloro-N-((1r,4r)-4-((3-(6-(cyclopropanecarboxa-mido)pyridin-3-yl)-2-oxo-2,3-dihydro-1H-benzo[d]imidazol-1-yl)methyl)cyclohexyl)-2-(difluoro-methyl)nicotinamide] | < 300 nM |
| CNC(=O)c1cc(C)c(-n2c(=O)n(C[C@H]3CC[C@H](NC(=O)c4cc(Cl)cnc4C(F)F)CC3)c3ccccc32)cn1 [Example 363, 5-(3-(((1r,4r)-4-(5-chloro-2-(difluoromethyl)nicotinamido)cyclohexyl)methyl)-2-oxo-2,3-dihydro-1H-benzo[d]imidazol-1-yl)-N,4-dimethylpicolinamide] | < 300 nM |
| Cc1ncc(Cl)cc1C(=O)N[C@H]1CC[C@H](Cn2c(=O)n(-c3ccc(NC[C@H]4CCCO4)nc3)c3ccccc32)CC1 [Example 110, 5-chloro-2-methyl-N-((1R,4r)-4-((2-oxo-3-(6-((((R)-tetra-hydrofuran-2-yl)methyl)amino)pyridin-3-yl)-2,3-dihydro-1H-benzo[d]imidazol-1-yl)methyl)cyclohexyl)nicotinamide] | < 300 nM |
| Cc1nc2ncc(-n3c(=O)n(C[C@H]4CC[C@H](NC(=O)c5cc(Cl)cnc5C)CC4)c4ccccc43)cc2o1 [Example 356, 5-chloro-2-methyl-N-((1r,4r)-4-((3-(2-methyloxazolo[4,5-b]pyridin-6-yl)-2-oxo-2,3-dihydro-1H-benzo[d]imidazol-1-yl)methyl)cyclohexyl)nicotinamide] | < 300 nM |
| Cc1ncc(Cl)cc1C(=O)N[C@H]1CC[C@H](Cn2c(=O)n(C3Cc4ccccc4C3)c3ccccc32)CC1 [Example 184, 5-chloro-N-((1r,4r)-4-((3-(2,3-dihydro-1H-inden-2-yl)-2-oxo-2,3-dihydro-1H-benzo [d]imidazol-1-yl)methyl)cyclohexyl)-2-methyl-nicotinamide] | < 300 nM |
| Cn1ccc(-c2ccc(-n3c(=O)n(C[C@H]4CC[C@H](NC(=O)c5cc(Cl)cnc5C(F)(F)F)CC4)c4ccccc43)cn2)n1 [Example 777, 5-chloro-N-((1r,4r)-4-((3-(6-(1-methyl-1H-pyrazol-3-yl)pyridin-3-yl)-2-oxo-2,3-dihydro-1H-benzo[d]imidazol-1-yl)methyl)cyclohexyl)-2-(trifluoromethyl)nicotinamide] | < 300 nM |
| N#Cc1ccncc1-n1c(=O)n(C[C@H]2CC[C@H](NC(=O)c3cc(Cl)cnc3C(F)(F)F)CC2)c2ccccc21 [Example 311, 5-chloro-N-((1r,4r)-4-((3-(4-cyanopyridin-3-yl)-2-oxo-2,3-dihydro-1H-benzo[d]imidazol-1-yl)methyl)cyclo-hexyl)-2-(trifluoromethyl) nicotinamide] | < 300 nM |
